Source: patent US9005981B2, “Assays utilizing nicotinic acetylcholine receptor subunits” (priority 2008, dated 2015)
Like-named read-outs stand apart in the source and are kept apart here.

Columns and labels:
[1] = system: Drosophila melanogaster flies of the Oregon wild-type strain; test: Fly mortality screen, wild-type flies; assay type: in vivo; settings: 100 ppm in 10% sucrose via cotton wicks, 72 hours post-treatment
Procedure: (§1) Ten adult Drosophila melanogaster flies (5 males and 5 females) of the Oregon wild-type strain and ten adult flies of a spinosyn-resistant strain were used per treatment. Two sets (of 10 flies) were set-up per treatment. Stocks of spinosyn A and a 21-butenyl-spinosyn analog were formulated at 1000 ppm in 2:1 acetone:water and then diluted to the required concentration in 10% sucrose. Vials received 500 ul of treatment (or solvent for controls) via cotton wicks (approximately ¼ inch) and flies were added to each vial and capped with a cotton plug. Flies were monitored over 72 hours post-treatment while being maintained at room-temperature with a 12:12 light:dark cycle.
(§2) In addition, the spinosyn A resistant flies were >100-fold resistant (based on LD50) to the new class of spinosyns, represented by the 21-butenyl spinosyns.

[2] = system: Drosophila melanogaster flies of a spinosyn-resistant strain; test: Fly mortality screen, spinosyn-resistant flies; assay type: in vivo; settings: for mortality: 100 ppm in 10% sucrose via cotton wicks, 72 hours post-treatment, spinosyn-resistant flies; for resistance of spinosyn A resistant flies compared to wild-type flies (based on LD50): dose-response data, LD50 resistant vs wild-type
Procedure: as §1, §2

[3] = system: D α6 and C. elegans ric3 expressed in D.Mel-2 cells; assay type: binding, Drosophila melanogaster
Procedure: D.Mel-2 cells were seeded into 75 cm^2 flasks at 1.9×10^7 cells/flask in Drosophila SFM containing antibiotic/antimicotic and incubated overnight at 27° C. The transfection mix was prepared in 12×75 mm polystyrene tubes by mixing 1630 μl sterile water, 40 μg pIB/V5-HisA/ric3, 40 μg pIB/V5-HisA/30D and 250 μl CellFectin. The reagents were mixed gently and incubated at room temp for 15 minutes. While the transfection mix was incubating, the cells were washed with 10 ml fresh Drosophila SFM without antibiotics; this media was then removed from the cells and replaced with 6 ml fresh Drosophila SFM without antibiotics. To the transfection mix was added 4 ml Drosophila SFM without antibiotics and this was then transferred to the flask. The reagents were gently mixed by pipetting up and down and then incubated overnight at 27° C.
D.Mel-2 cells were purchased from Invitrogen (Carlsbad, Calif.) and grown in disposable 125 ml shake flasks using 50 ml volume. Cells were subcultured to 3×10^5 cells/ml twice per week in Drosophila SFM containing 5 ml/L Antibiotic-Antimycotic (100×) (Gibco, Carlsbad, Calif.). D.Mel-2 cells were seeded into a 12-well plate at a cell density of 5×10^5 cells/well and incubated overnight at 27° C. In a 12×75 mm polystyrene tube 6 μg pIB/V5-HisA/ric3, 82 μl sterile H2O and 12 μl CellFectin (Invitrogen, Carlsbad, Calif.) were added. The sample was mixed gently and incubated at room temperature for 15 minutes. While the transfection mix was incubating, media from one well of cells was removed and replaced with 1 ml fresh media without antibiotics. After 15 minutes, the media was removed from cells. To this transfection mix, 0.5 ml media (no antibiotics) was added. This solution was then added to the cells. The mixture was incubated for 48 hrs at 27° C. After 48 hrs, the cells were scraped from the plate using a cell scraper and split into 4 wells of a 6-well plate each containing 2 ml Drosophila SFM with antibiotics. Cells were allowed to attach for 1 hr at 27° C.; the media was removed and replaced with 2 ml fresh media containing 25 μg/ml Blasticidin S (Invitrogen, Carlsbad, Calif.). Cells were incubated at 27° C. for 5 days. After 5 days, the cells were scraped loose from the wells and combined into one tube. Cells were spun down at 600 rpm in a tabletop centrifuge; the media was removed and the cells were resuspended into a 50 ml shake culture in fresh Drosophila SFM containing 25 μg/ml Blasticidin S. The cells were incubated at 27° C./140 rpm. Cells were subcultured twice weekly back to cell density of 3×10^5 cells/ml. After 4 weeks the selection was cut back to 10 μg/ml Blasticidin S. After 3 months of growth under selection, a 12 well plate was seeded at 5×10^5 cells/well and cells were incubated over night at 27° C. The following reagents were added to each of three 12×75 mm polystyrene tubes: 2 μg pMT/V5-HisA/30D, 0.15 μg pCoHygro (Invitrogen, Carlsbad, Calif.) (a […] ratio of expression plasmid:selection plasmid), 89 μl sterile H2O and 12 μl CellFectin. The samples were mixed gently and incubated at room temp for 15 minutes and then transfected as described above. After 24 hrs, the media containing transfection mix was removed and replaced with 1 ml fresh media containing antibiotics. The incubation was continued at 27° C. for another 24 hrs. Cells were scraped loose from the 12-well plate (3 wells) and split into 2, 6-well plates. Cells were allowed to attach for 6 hours at which point, the media was replaced with 2 ml/well fresh media containing 200, 150, 100 or 50 μg/ml hygromycin B. The incubation was continued at 27° C.; every 4-5 days, the media was replaced with media containing hygromycin every 4-5 days. After 2 weeks of selection in the plates, the cells from the 200 μg/ml selection, were scraped loose and then gently pelleted and resuspended in 25 ml fresh media containing 200 μg/ml hygromycin B and then placed into a 125 ml shake flask.

[4] = system: nicotinic acetylcholine receptor alpha-6 subunit (30D); assay type: cell-based, Drosophila melanogaster; further: key: '−' indicates a negligible current was induced; '+' indicates a small amplitude current; '++' indicates a moderate amplitude current; '++++' indicates a large amplitude current
Procedure: (§3) Xenopus laevis (Xenopus 1, Ann Arbor, Mich.; Nasco, Fort Atkinson, Wis.) were anesthetized by bathing in a solution of 2 g/l tricaine methane sulfonate, and oocytes were surgically removed from the frog and placed in a culture solution that consisted of 96 mM NaCl, 2 mM KCl, 1.8 mM CaCl2, 1 mM MgCl2, 5 mM HEPES, 2.5 mM Na-pyruvate, 100 units/ml penicillin, and 0.1 mg/ml streptomycin, pH 7.6. Oocytes were dispersed in a nominally zero Ca^2+ protease treatment solution to defolliculate the oocytes. The protease treatment solution consisted of either 88 mM NaCl, 2.5 mM KCl, 1 mM MgCl2, 5 mM HEPES, 2.5 mM Na-pyruvate, 100 units/ml penicillin, and 0.1 mg/ml streptomycin, pH 7.6 plus 1.5 mg/ml collagenase IA (Sigma Chemical Co., St. Louis, Mo.). After isolation, the oocytes were thoroughly rinsed and returned to the above Ca^2+ containing culture solution and stored at 18° C.
(§4) Synthesis of cRNA was performed as follows: Plasmid DNA was linearized with one of the following restriction enzymes; Not I, Xho I or Nhe I. The linearized DNA was subsequently used as template for cRNA synthesis using T7 mMessage mMachine kit (Ambion, Austin, Tex.) following the manufacturer's instructions.
(§5) Micropipettes for injection of cRNA into Xenopus oocytes were pulled on a DMZ-Universal Puller (Zeitz-Instruments, München, Germany). The cRNA to be injected was drawn up into the micropipette with negative pressure. Approximately 10-50 ng of cRNA was injected into the oocytes by applying positive pressure using a Nanoject II oocyte injector (Drummond Scientific Co., Broomall, Pa.). Nucleic acid was introduced into the oocytes as follows: (1) nicotinic acetylcholine receptor alpha-6 subunit subunit (30D) (2) nicotinic alpha-7 receptor subunit (34E); (3) nicotinic acetylcholine receptor alpha-6 subunit and C. elegans ric-3 (30D and ric-3); (4) nicotinic alpha-7 receptor subunit and C. elegans ric-3 (34E and ric-3); (5) nicotinic acetylcholine receptor alpha-6 subunit and nicotinic alpha-7 receptor subunit (30D and 34E); and, (6) nicotinic acetylcholine receptor alpha-6 subunit, nicotinic alpha-7 receptor subunit and C. elegans ric-3 (30D, 34E and ric-3).
(§6) The control external solution for voltage clamp recordings consisted of 88 mM NaCl, 1 mM KCl, 0.41 mM CaCl2, 2.4 mM NaHCO3, 0.3 mM Ca(NO3)2, 0.82 mM MgSO4.7H2O, and 15 mM HEPES, pH 7.6. The recording chamber was continuously perfused with a gravity-fed perfusion system. Nicotine (1 mM) was added to the external solution and then added to the perfusate for 30 seconds. Then, nicotine was washed from the external solution a minimum of 10 minutes. Thereafter, spinosyn A was dissolved in dimethylsulfoxide (DMSO) and then dissolved in the external solution at a final concentration of 10 μM and then added to the perfusate for 60 seconds. Then, the spinosyn A was washed from the external solution. The final concentration of DMSO never exceeded 0.1% (v/v).

34E/ric-3 = assay type: cell-based, Drosophila melanogaster; further: key: '−' indicates a negligible current was induced; '+' indicates a small amplitude current; '++' indicates a moderate amplitude current; '++++' indicates a large amplitude current
Procedure: as §3, §4, §5, §6

[5] = system: nicotinic acetylcholine receptor alpha-5 subunit (34E); assay type: cell-based, Drosophila melanogaster; further: key: '−' indicates a negligible current was induced; '+' indicates a small amplitude current; '++' indicates a moderate amplitude current; '++++' indicates a large amplitude current
Procedure: as §3, §4, §5, §6

Dα6-nicotinic receptor = assay type: binding, Drosophila melanogaster
Procedure: Xenopus oocytes were injected as previously described for the electrophysiological assay and were used intact for binding assays.
Two main radioligands were used in binding assays: the conventional α7 radioligand, [^3]methyllycaconitine (MLA) and [^3]dihydrospinosyn A (DHSA). For both radioligands, the Binding Buffer used consisted of 10 mM sodium phosphate (7.2-7.4). All experiments using D.Mel-2 cell suspensions were carried out with 50 μl of cell suspension. For Xenopus oocyte binding assays, oocytes were pooled (2-5 oocytes) and transferred to 1 ml Binding Buffer. This was followed by gently aspirating the Binding Buffer and replacing with fresh Binding Buffer twice, to wash out any residual oocyte bathing media. The final volume of buffer added to each pool of oocytes was 50-100 μl. […] Subsequent dilutions were made in Binding Buffer. The final concentration of solvent was maintained at less than 0.1% in each well. […] For the cell extracts, bound radioactivity and free radioactivity fractions were separated by gentle vacuum through GF/C glass fiber filter mats using a TomTec (CT) 96-well cell harvester. […] Filter mats were dried in an oven at 60° C. and the radioactivity from samples was counted for three minutes with a Wallac MicroBeta Counter (Wallac, Conn.) using Meltilex solid-scintillant (PerkinElmer, Finland). […]

30D/ric-3 = assay type: cell-based, Drosophila melanogaster; settings: spinosyn A 10 μM for 60 seconds, oocytes clamped to −60 mV, peak current
Procedure: as §3, §4, §5, §6

34E/30D = assay type: cell-based, Drosophila melanogaster; set-up: key to the marks not given beside the values; settings: spinosyn A 10 μM for 60 seconds, oocytes clamped to −60 mV, peak current
Procedure: as §3, §4
(§7) Micropipettes for injection of cRNA into Xenopus oocytes were pulled on a DMZ-Universal Puller (Zeitz-Instruments, München, Germany). […]

34E/30D/ric-3 = assay type: cell-based, Drosophila melanogaster; set-up: key to the marks not given beside the values; settings: spinosyn A 10 μM for 60 seconds, oocytes clamped to −60 mV, peak current
Procedure: as §3, §4, §7

[6] = D.Mel-2 cells expressing D α6 and C. elegans ric3
Wherever Spinosyn A Response is given: key: '−' indicates a negligible current was induced; '+' indicates a small amplitude current; '++' indicates a moderate amplitude current; '++++' indicates a large amplitude current.

Compound: 21-butenyl spinosyn
- mortality [1]: all wild-type flies exhibited mortality
- mortality [2]: no significant mortality
- resistance of spinosyn A resistant flies compared to wild-type flies (based on LD50) [2]: > 100 fold

Compound: CCN1C[C@]2(COC(=O)c3ccccc3N3C(=O)C[C@H](C)C3=O)CC[C@H](OC)[C@@]34[C@@H]5C[C@H]6[C@H](OC)[C@@H]5[C@](O)(C[C@@H]6OC)[C@@](O)([C@@H](OC)[C@H]23)[C@@H]14 [MLA, methyllycaconitine]
- displacement of [3H]DHSA binding [3, 6]: can be demonstrated at higher concentrations
- overall affinity for this receptor complex ([3]; [3H]DHSA binding assay, D.Mel-2 cells): relatively poor

Compound: CN1CCCC1c1cccnc1 (centres unmarked) [Nicotine, nicotine]
- Nicotine Response [4]: −
- Nicotine Response (34E/ric-3): +
- Nicotine Response [5]: +
- % Displacement of Total Binding (Dα6-nicotinic receptor): 72%
- displacement of [3H]DHSA binding [3]: displacement

Compound: CC[C@H]1CCC[C@H](O[C@H]2CC[C@H](N(C)C)[C@@H](C)O2)[C@@H](C)C(=O)C2=C[C@@H]3[C@@H](C=C[C@@H]4C[C@@H](O[C@@H]5O[C@@H](C)[C@H](OC)[C@@H](OC)[C@H]5OC)C[C@@H]34)[C@@H]2CC(=O)O1 [Spinosyn A, spinosyn A]
- Spinosyn A Response ([4]; 30D, spinosyn A 10 μM for 60 seconds, oocytes clamped to −60 mV, peak current): −
- Spinosyn A Response (34E/ric-3; 34E/ric-3, spinosyn A 10 μM for 60 seconds, oocytes clamped to −60 mV, peak current): −
- Spinosyn A Response (30D/ric-3): +
- Spinosyn A Response ([5]; 34E, spinosyn A 10 μM for 60 seconds, oocytes clamped to −60 mV, peak current): −
- Spinosyn A Response (34E/30D): ++
- Spinosyn A Response (34E/30D/ric-3): ++++
- % Displacement of Total Binding (Dα6-nicotinic receptor; 10 μM, [3H]MLA, intact Xenopus oocytes 3 days post-injection with Dmα6): 72%
- mortality [1]: all wild-type flies exhibited mortality
- mortality [2]: no significant mortality
- resistance of spinosyn A resistant flies compared to wild-type flies (based on LD50) [2]: at least 100 fold
- displacement of [3H]DHSA binding [3, 6]: significant displacement

Compound: C[N+](C)(C)CCOC(N)=O.[Cl-] [carbamylcholine]
- displacement of [3H]DHSA binding [3, 6]: did not significantly displace

Compound: CC[C@H]1CCC[C@H](O[C@H]2CC[C@H](N(C)C)[C@@H](C)O2)[C@@H](C)C(=O)C2=C[C@H]3[C@@H]4C[C@H](O[C@@H]5O[C@@H](C)[C@H](OC)[C@@H](OC)[C@H]5OC)C[C@H]4CC[C@H]3[C@@H]2CC(=O)O1 [dihydrospinosyn A]
- displacement of [3H]DHSA binding [3, 6]: significant displacement

Compound: Clc1ccc(C2CC3CCC2N3)cn1 (centres unmarked) [epibatidine]
- displacement of [3H]DHSA binding [3, 6]: did not significantly displace

Compound: NS(=O)(=O)c1cc(C(=O)O)c(NCc2ccco2)cc1Cl [furosemide]
- displacement of [3H]DHSA binding [3]: No significant displacement

Compound: O=[N+]([O-])NC1=NCCN1Cc1ccc(Cl)nc1 [imidacloprid]
- displacement of [3H]DHSA binding [3, 6]: did not significantly displace

Compound: CN1[C@@H](CC(=O)c2ccccc2)CCC[C@H]1C[C@H](O)c1ccccc1 [lobeline]
- displacement of [3H]DHSA binding [3, 6]: did not significantly displace

Compound: CC[C@H]1CCC[C@H](O)[C@@H](C)C(=O)C2=C[C@@H]3[C@@H](C=C[C@@H]4C[C@@H](O[C@@H]5O[C@@H](C)[C@H](OC)[C@@H](OC)[C@H]5OC)C[C@@H]34)[C@@H]2CC(=O)O1 [pseudoagylcone of spinosyn A]
- displacement of [3H]DHSA binding [3, 6]: Nor was there significant displacement

Compound: C[C@H](O)[C@H](O)[C@@H](O)[C@@H](O)C=O [rhamnose]
- displacement of [3H]DHSA binding [3, 6]: No significant displacement

Compound: CN1COCN(Cc2cnc(Cl)s2)/C1=N\[N+](=O)[O-] [thiamethoxam]
- displacement of [3H]DHSA binding [3, 6]: did not significantly displace

Compound: alpha-bungarotoxin
- displacement of [3H]DHSA binding [3]: can be demonstrated at higher concentrations
- overall affinity for this receptor complex [3]: relatively poor
